7 molecules from US4680304A, “Feed compositions containing 2-(α-pyridyl)-Δ^2 -heterocyclic compounds” (SmithKline Beckman Corporation, priority 1985, dated 1987) can be followed below.

Assay [1] relates to fermentation in the digestive tract (swine ileal/cecal inoculum). In words: In vitro swine procedure (fistula test; incubation of filtered ileal/cecal inoculum). Also on record: species or system swine (Yorkshire barrow). Particulars: 5 hours at 37°.
The next assay in a line: Chick growth study. The format is in vivo, broiler chicks. On the procedure:
512 day old broiler chicks, selected for weight, health and sex, are housed in an environmentally controlled room with temperature at 37.7° and humidity at 40%. Chicks are fed ad libitum. Water is offered ad libitum. A corn or, preferably rye, basal ration is fed during the acclimation period (days 1 and 2). It is, then, mixed with the compound under test or used as a control on days 3-17. Either 8 or 16 chicks are used for each test or control group.

Several values for one entry are separate records, joined by “and”; a condition that tells them apart may be missing. Identical values can stand only once.

Take `CC1(C)NN=C(c2ccccn2)N1` [5,5-Dimethyl-3-(2'-pyridyl)-4,5-dihydro-1H-triazole]: in assay [1] (166.67 ppm), the “GLU (glucose)” value is given as 105 % of control values. Also, in the assay “Chick growth study” (9 ppm in feed), the “Feed/Gain (3-17 day)” value was 97.2 % of Control and the “Weight (17 day)” value is reported as 103.5 % of Control. Also, in the assay “Chick growth study” (50 ppm in feed), the “Feed/Gain (3-17 day)” value is reported as 103.1 % of Control and the “Weight (17 day)” value is reported as 97.7 % of Control.
Turning to `NC(=NO)c1ccccn1` [2-Amidoximopyridine], in assay [1] (166.67 ppm), the “LAC (L-lactic acid)” value is given as 111 % of control values, the “LYS (lysine)” value is reported as 99 % of control values and the “VFA (total of volatile fatty acids)” value is given as 98 % of control values. Besides, in the assay “Chick growth study” (10 ppm in feed), the “Feed/Gain (3-17 day)” value was 97.0 % of Control and 101.2 % of Control; the “Weight (17 day)” value is 108.5 % of Control and 99.2 % of Control. In addition, in the assay “Chick growth study” (50 ppm in feed), the “Feed/Gain (3-17 day)” value is 97.3 % of Control and the “Weight (17 day)” value is recorded as 103.0 % of Control.
For the molecule `CC1(O)CC(C(N)=O)N=C1c1ncccc1O` (stereo not shown) [3,4-dihydro-4-hydroxy-5-(3-hydroxy-2-pyridinyl)-4-methyl-2H-pyrrole-2-carboxamide], the “LYS (lysine)” value was 75 % of control values in assay [1] (1.67 ppm); 82 % of control values in assay [1] (16.67 ppm); 136 % of control values in assay [1] (entry (a), 166.7 ppm); 142 % of control values in assay [1] (entry (b), 166.7 ppm). Besides, the “VFA (total of volatile fatty acids)” value is 103 % of control values in assay [1] (16.67 ppm); 26 % of control values in assay [1] (entry (a), 166.7 ppm); 43 % of control values in assay [1] (entry (b), 166.7 ppm). Further, the “Feed/Gain (3-17 day)” value in the assay “Chick growth study” (4.5 ppm in feed) was 98.4 % of Control; in “Chick growth study” (25 ppm in feed) it was 92.6 % of Control and 99.9 % of Control. The “Weight (17 day)” value in the assay “Chick growth study” (4.5 ppm in feed) was 101.0 % of Control; in “Chick growth study” (25 ppm in feed), 109.4 % of Control and 108.5 % of Control.
Regarding `COC(=O)C1(C)NN=C(c2ccccn2)N1` (stereo not shown) [Methyl 5-methyl-3-(2'-pyridyl)-4,5-dihydro-1H-triazole-5-carboxylate], in “Chick growth study” (50 ppm in feed), the “Feed/Gain (3-17 day)” value was 91.0 % of Control and the “Weight (17 day)” value is recorded as 108.1 % of Control.
On to `Cc1nc(-c2ccccn2)no1`, for which, in assay [1] (166.67 ppm), the “GLU (glucose)” value was 113 % of control values and the “LYS (lysine)” value was 110 % of control values. Besides, in the assay “Chick growth study” (8.5 ppm in feed), the “Feed/Gain (3-17 day)” value is 99.2 % of Control and the “Weight (17 day)” value was 102.3 % of Control.
On to Virginiamycin [reference compound], for which the “GLU (glucose)” value is 131 % of control values in assay [1] (1.67 ppm), 153 % of control values in assay [1] (16.67 ppm) and 153 % of control values in assay [1] (166.67 ppm). For the same molecule, the figures for the “LYS (lysine)” value in assay [1] (1.67 ppm), in assay [1] (16.67 ppm) and in assay [1] (166.67 ppm) were 134 % of control values, 212 % of control values and 289 % of control values, respectively. In addition, the “VFA (total of volatile fatty acids)” value in assay [1] (1.67 ppm) is reported as 147 % of control values; in assay [1] (16.67 ppm), 85 % of control values; in assay [1] (166.67 ppm), 39 % of control values. Besides, the “Feed/Gain (3-17 day)” value is listed as 96.5 % of Control in the assay “Chick growth study” (10 ppm in feed (rye)), 100.4 % of Control in “Chick growth study” (10 ppm in feed) and 88.5 % of Control in “Chick growth study” (50 ppm in feed). Moreover, the entries for the “Weight (17 day)” value in “Chick growth study” (10 ppm in feed (rye)), in the assay “Chick growth study” (10 ppm in feed) and in the assay “Chick growth study” (50 ppm in feed) were 107.1 % of Control, 97.7 % of Control and 127.8 % of Control, respectively.
For `c1ccc(C2=NCCN2)nc1` [2-(2-Pyridyl)-imidazoline], in “Chick growth study” (50 ppm in feed), the “Feed/Gain (3-17 day)” value was 93.0 % of Control and the “Weight (17 day)” value is given as 106.2 % of Control.
